Test results: US20040121962A1, “Prodrugs of excitatory amino acids” (priority 2001, published 2004)

Experiments:
[1] = target: T1, human mGluR3 (Homo sapiens, UniProt Q14832); assay: Displacement of [3H]LY341495 binding to cell membranes, human mGluR3; settings: read-out: Displacement of 3H-LY341495 binding (Ki, nM) (mean ± S.E., N = 3)
T1 construct: expressed in transfected cells
Method: (§1) To study the ability to affect receptor binding of compounds of the present invention in comparison to LY354740, displacement of a high affinity mGluR2 antagonist radioligand [^3H]LY341495 to cell membranes from human mGluR2, human mGluR3, and native rat brain tissues was determined.

[2] = system: fear-potentiated startle (mGlu2/3 receptor linked); assay: Rat fear-potentiated startle anxiety model; type: in vivo; settings: for MED (1 hour pre-treatement): fed rats, oral, 1 hour pre-treatment
Source text: This model was specifically chosen, as it is highly sensitive to mGlu2/3 agonists such as LY354740 and compounds of the present invention. (See, Helton […]., Monn […]., and Kallman M. J., Anxiolytic and side-effect profile of LY354740: A potent, high selective, orally active agonist for group II metabotropic glutamate receptors, J. Pharmacol. Exp. Ther. 284: 651-660 (1998)). To verify that the actions of a compound of formula I in this model were mGlu2/3 receptor mediated, as has been shown previously for LY354740 (See, […]., Ornstein P. L., Monn J. A., and Schoepp D. D., Actions of mGlu receptor agonists on fear-conditioning versus fear-expression in rats, Neuropharmacology, 38:[…] (#144) (1999)), the ability of LY341495 (an mGlu2/3 receptor antagonist) (See, Kingston A. E., Ornstein P. L., Wright R. A., Johnson […]., Burnett […]., Wu S., and Schoepp D. […] As a positive control in each experiment, diazepam (0.6 mg/kg i.p.) was used. All experiments were performed in fed rats. In the fear potentiated startle model, animals are exposed to a neutral stimulus such as light (conditioned stimulus) with an aversive stimulus such as a shock (unconditioned stimulus). Following conditioning, when the animals are presented with a loud acoustic stimulus, larger startle responses are elicited when the startle stimulus is preceded by light. Male Long Evans rats (180-400 g) or male NIH Swiss mice (18-35 g) were obtained from Harlan Sprague-Dawley, Cumberland, Ind., USA and acclimated at least 3 days before testing. Animals were housed at 23±2° C. (relative humidity 30% to 70%) and given Purina Certified Rodent Chow and water ad libitum. The photoperiod was 12 hours of light and 12 hours of dark, with dark onset at approximately 1800 hours. Test compounds were dissolved in a vehicle of purified water and neutralized with 5 N NaOH to a pH of 7-8 when applicable. Diazepam (Sigma Chemical Company, St. […] Control animals received the respective vehicle. […]

[3] = target: T2, human mGluR2 (Homo sapiens, UniProt Q14416); assay: Displacement of [3H]LY341495 binding to cell membranes, human mGluR2; settings: read-out: Displacement of 3H-LY341495 binding (Ki, nM) (mean ± S.E., N = 3)
T2 construct: expressed in transfected cells
Method: as §1

[4] = target: mGlu2/3 receptors in rat forebrain membranes; settings: read-out: Displacement of 3H-LY341495 binding (Ki, nM) (mean ± S.E., N = 3)
Method: as §1

T1 sequence (Q14832 23-879): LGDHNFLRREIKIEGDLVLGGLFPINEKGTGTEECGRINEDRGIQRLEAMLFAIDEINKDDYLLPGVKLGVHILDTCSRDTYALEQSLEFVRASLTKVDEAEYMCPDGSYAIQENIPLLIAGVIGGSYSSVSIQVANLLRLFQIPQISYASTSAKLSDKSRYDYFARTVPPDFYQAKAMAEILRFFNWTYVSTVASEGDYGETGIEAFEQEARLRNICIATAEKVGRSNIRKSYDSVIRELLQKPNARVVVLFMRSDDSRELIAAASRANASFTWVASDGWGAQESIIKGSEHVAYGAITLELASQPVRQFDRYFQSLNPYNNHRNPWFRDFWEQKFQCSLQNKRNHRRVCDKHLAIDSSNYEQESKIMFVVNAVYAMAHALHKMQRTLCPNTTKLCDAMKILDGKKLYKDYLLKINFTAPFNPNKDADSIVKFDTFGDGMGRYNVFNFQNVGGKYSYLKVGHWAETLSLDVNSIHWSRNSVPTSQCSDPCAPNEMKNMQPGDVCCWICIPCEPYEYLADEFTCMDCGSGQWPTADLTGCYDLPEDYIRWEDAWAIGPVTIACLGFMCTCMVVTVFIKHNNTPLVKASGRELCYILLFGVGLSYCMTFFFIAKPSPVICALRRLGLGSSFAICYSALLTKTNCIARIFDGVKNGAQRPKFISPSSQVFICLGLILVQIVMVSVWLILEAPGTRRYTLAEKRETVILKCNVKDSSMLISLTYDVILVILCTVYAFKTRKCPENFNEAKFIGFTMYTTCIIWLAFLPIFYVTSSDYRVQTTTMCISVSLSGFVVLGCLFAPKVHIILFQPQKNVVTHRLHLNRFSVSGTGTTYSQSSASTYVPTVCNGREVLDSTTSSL
T2 sequence (Q14416 19-872): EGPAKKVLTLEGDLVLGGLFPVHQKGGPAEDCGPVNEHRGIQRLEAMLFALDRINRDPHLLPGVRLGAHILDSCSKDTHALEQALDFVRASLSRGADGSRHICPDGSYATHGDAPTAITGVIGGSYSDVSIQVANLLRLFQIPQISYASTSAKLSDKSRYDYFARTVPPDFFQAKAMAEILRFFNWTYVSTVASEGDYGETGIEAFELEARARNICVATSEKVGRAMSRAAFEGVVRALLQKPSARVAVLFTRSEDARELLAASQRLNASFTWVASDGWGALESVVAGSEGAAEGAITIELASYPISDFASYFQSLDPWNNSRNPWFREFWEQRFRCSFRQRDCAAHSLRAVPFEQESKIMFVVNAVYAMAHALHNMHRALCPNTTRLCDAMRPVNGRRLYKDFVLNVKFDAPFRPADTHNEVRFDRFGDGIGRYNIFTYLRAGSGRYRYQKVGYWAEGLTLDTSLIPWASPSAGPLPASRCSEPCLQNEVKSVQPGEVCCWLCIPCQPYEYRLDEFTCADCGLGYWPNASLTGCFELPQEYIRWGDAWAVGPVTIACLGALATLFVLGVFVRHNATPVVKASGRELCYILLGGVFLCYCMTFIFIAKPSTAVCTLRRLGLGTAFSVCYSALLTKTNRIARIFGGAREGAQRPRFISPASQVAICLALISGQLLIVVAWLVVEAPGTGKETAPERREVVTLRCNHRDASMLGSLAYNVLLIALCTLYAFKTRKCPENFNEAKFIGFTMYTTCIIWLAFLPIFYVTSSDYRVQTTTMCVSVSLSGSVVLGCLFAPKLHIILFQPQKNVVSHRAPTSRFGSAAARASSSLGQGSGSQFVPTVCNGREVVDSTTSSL

SMILES	Ki [1] [nM]	MED (1 hour pre-treatement) [2] [mg/kg p.o.]	Ki [3] [nM]	oral potency in the treatment of anxiety ([2]; preclinical studies)	Ki [4] [nM]
C[C@H](N)C(=O)N[C@@]1(C(=O)O)CC[C@H]2[C@H](C(=O)O)[C@H]21 [Formula I, (1S,2S,5R,6S)-2-[(2′S)-(2′-Amino)-propionyl]amino-bicyclo[3.1.0]hexane-2,6-dicarboxylic acid]	> 10000	0.01	> 10000	–	–
C[C@H](N)C(=O)N[C@@]1(C(=O)O)CC[C@H]2[C@H](C(=O)O)[C@H]21.Cl [Example 3, (1S,2S,5R,6S)-2-[(2′S)-(2′-Amino)-propionyl]amino-bicyclo[3.1.0]hexane-2,6-dicarboxylic acid hydrochloride]	–	–	–	greatly enhanced oral potency	–
NC1(C(=O)O)CCC2C(C(=O)O)C21 (single isomer, unassigned; (+)) [LY354740, (+)-2-aminobicyclo[3.1.0]hexane-2,6-dicarboxylic acid]	126 ± 4.8	3.0	84.7 ± 11.1	–	80 ± 7.3
